Like-named read-outs stand apart in the source and are kept apart here.
Assays:
[1] = target: T1, Human recombinant PDE2A (hPDE2A) (Homo sapiens, UniProt O00408); test: In vitro assay PDE2A (SPA, 3H-cGMP); type: biochemical; conditions: read-out: pIC50 PDE2 (converted)
T1 construct: made in house; host or cells: Sf9 insect cells (baculovirus)
Procedure: Tested compounds were dissolved and diluted in 100% DMSO to a concentration 100 fold of the final concentration in the assay. Compound dilutions (0.4 μl) were added in 384 well plates to 20 μl of incubation buffer (50 mM Tris pH 7.8, 8.3 mM MgCl2, 1.7 mM EGTA). 10 μl of hPDE2A enzyme in incubation buffer was added and the reaction was started by addition of 10 μl substrate to a final concentration of 10 μM cGMP and 0.01 μCi ^3H-cGMP. The reaction was incubated for 45 minutes at room temperature. […] After sedimentation of the beads during 30 minutes the radioactivity was measured in a Perkin Elmer Topcount scintillation counter and results were expressed as cpm. For blanc values the enzyme was omitted from the reaction and replaced by incubation buffer. Control values were obtained by addition of a final concentration of 1% DMSO instead of compound.

[2] = target: T2, Rat recombinant PDE10A (rPDE10A2) (Rattus norvegicus, UniProt Q9QYJ6); test: In vitro assay PDE10A (SPA, 3H-cAMP); type: biochemical; conditions: read-out: PIC50 PDE10 (converted)
T2 construct: made in house; host or cells: Sf9 insect cells (baculovirus)
T2 sequence (Q9QYJ6 1-794): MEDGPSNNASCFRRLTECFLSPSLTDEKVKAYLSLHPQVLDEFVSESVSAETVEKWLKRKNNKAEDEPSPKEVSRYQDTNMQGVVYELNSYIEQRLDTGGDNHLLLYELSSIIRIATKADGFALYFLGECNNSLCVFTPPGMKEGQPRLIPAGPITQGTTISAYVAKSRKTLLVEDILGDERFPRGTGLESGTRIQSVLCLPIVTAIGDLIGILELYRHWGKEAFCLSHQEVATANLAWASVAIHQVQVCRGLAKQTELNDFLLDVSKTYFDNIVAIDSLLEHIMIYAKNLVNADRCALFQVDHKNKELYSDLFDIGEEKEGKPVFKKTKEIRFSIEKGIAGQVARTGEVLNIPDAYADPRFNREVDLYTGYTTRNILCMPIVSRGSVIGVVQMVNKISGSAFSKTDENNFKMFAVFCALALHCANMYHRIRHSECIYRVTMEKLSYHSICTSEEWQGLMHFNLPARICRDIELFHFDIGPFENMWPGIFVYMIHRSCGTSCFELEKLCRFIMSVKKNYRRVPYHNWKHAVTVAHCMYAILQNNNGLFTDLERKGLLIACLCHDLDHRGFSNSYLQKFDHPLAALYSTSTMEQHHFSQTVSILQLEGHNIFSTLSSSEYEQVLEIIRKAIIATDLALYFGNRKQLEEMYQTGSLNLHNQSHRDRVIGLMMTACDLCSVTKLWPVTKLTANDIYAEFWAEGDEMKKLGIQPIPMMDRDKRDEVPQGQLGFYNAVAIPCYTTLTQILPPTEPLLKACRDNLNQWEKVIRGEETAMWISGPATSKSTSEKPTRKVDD

[3] = test system: Apomorphine-induced agitation; test: Reversal of Apomorphine-induced Agitation in Rats (APO); type: in vivo, rat; conditions: for SC Dose at max effect / SC Max effect (cumulative agitation score over 60 min) / SC LAD (lowest active dose): subcutaneous route; for SC Max effect (cumulative agitation score over 60 min) / PO Max effect (cumulative agitation score over 60 min): apomorphine 1.0 mg/kg i.v.; for SC LAD (lowest active dose) / PO LAD (lowest active dose): lowest dose at which ≥67% tested animals respond
Procedure: Apomorphine (1.0 mg/kg, i.v.)-induced agitation was scored every 5 min over the first hour after injection of apomorphine. The score system was: (3) pronounced, (2) moderate, (1) slight, and (0) absent. […] For the present purpose, the cumulative agitation score over the whole 60-min observation period was used as a measure to describe the maximum effect (Max effect).

[4] = -log IC50 expressed in mol/L, rPDE10A2, 60 nM cAMP

T1 sequence (O00408 whole entry): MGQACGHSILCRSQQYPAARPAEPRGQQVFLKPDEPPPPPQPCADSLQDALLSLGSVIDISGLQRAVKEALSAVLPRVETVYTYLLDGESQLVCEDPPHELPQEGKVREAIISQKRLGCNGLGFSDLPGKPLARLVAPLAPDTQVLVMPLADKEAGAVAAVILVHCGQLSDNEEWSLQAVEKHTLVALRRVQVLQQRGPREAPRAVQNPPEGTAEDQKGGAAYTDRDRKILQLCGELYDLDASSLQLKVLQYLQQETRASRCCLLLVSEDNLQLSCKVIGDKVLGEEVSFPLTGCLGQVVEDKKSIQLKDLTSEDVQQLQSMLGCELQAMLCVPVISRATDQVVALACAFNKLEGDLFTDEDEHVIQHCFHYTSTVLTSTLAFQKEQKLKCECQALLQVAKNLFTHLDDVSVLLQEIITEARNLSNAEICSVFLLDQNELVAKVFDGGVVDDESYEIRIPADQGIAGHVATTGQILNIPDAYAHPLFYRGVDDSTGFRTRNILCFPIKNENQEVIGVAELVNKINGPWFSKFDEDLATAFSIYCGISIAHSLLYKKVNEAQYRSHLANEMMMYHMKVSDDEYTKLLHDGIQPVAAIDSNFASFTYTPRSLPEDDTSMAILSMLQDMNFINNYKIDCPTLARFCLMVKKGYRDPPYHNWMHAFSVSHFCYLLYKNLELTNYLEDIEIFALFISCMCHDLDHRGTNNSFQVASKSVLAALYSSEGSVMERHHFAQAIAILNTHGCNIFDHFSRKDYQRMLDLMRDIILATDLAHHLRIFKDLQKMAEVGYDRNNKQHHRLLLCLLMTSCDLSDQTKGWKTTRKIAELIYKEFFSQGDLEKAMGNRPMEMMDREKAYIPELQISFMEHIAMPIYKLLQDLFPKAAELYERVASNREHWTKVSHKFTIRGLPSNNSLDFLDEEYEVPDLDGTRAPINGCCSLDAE

SMILES | IC50 [1] [nM] | IC50 [2] [nM] | IC50 [2, 4] [nM] | SC Dose at max effect [3] [mg/kg] | SC Max effect (cumulative agitation score over 60 min) [3] | SC LAD (lowest active dose) [3] [mg/kg] | PO Dose at Max Effect [3] [mg/kg] | PO Max effect (cumulative agitation score over 60 min) [3] | PO LAD (lowest active dose) [3] [mg/kg]
COCC1CCN(Cc2ccc3nc(C)c4nnc(-c5ccccc5Cl)n4c3c2)C1 (centres unmarked) [Compound B-94] | 12.9 | 64.6 |  | 5 | 24 | > 5 |  |  | 
CCOC(=O)c1ccc2nc(C)c3nnc(-c4ccccc4Cl)n3c2c1 [Compound B-1a, Ethyl 1-(2-chlorophenyl)-4-methyl[1,2,4]triazolo[4,3-a]quinoxaline-8-carboxylate] | 4.27 |  | 58.9 |  |  |  | 2.5 | 22 | > 2.5
C=Cc1ccc2nc(C)c3nnc(-c4ccccc4Cl)n3c2c1 [Compound B-14, 1-(2-Chlorophenyl)-8-ethenyl-4-methyl[1,2,4]triazolo[4,3-a]quinoxaline] | 7.08 | 37.2 |  |  |  |  | 10 | 21 | > 10
Cc1nc2ccc(CN3CCOC(CCO)C3)cc2n2c(-c3ccccc3Cl)nnc12 (centres unmarked) [Compound B-63] | 5.62 | 9.33 |  | 10 | 19 | 10 |  |  | 
Cc1nc2ccc(CNc3cccnc3)cc2n2c(-c3ccccc3Cl)nnc12 [Compound B-50] | 2.34 | 11 |  | 10 | 22 | > 10 |  |  | 
Cc1nc2ccc(NCCc3ccccn3)cc2n2c(-c3ccccc3Cl)nnc12 [Compound B-60] | 5.01 | 6.61 |  |  |  |  | 10 | 21 | > 10
CCOc1ccc(Cl)c(-c2nnc3c(C)nc4ccc(N5CCN(C)CC5)cc4n23)c1 [Compound B-102] | 18.2 | 162 |  | 10 | 21 | > 10 |  |  | 
COc1ccc(-c2nnc3c(C)nc4ccc(C(=O)NCc5ccccn5)cc4n23)c(Cl)c1 [Compound B-74] | 6.92 | 129 |  |  |  |  | 10 | 21 | > 10
CCOCc1ccc2nc(C)c3nnc(-c4ccccc4)n3c2c1 [Compound B-12, 8-(Ethoxymethyl)-4-methyl-1-phenyl[1,2,4]triazolo[4,3-a]quinoxaline] | 21.4 | 269 |  | 10 | 19 | 10 |  |  | 
Cc1nc2ccc(C(=O)NCCc3ccccc3)cc2n2c(-c3ccccc3)nnc12 [Compound B-54] | 3.47 | 93.3 |  |  |  |  | 2.5 | 22 | > 2.5
Cc1nc2ccc(C(=O)NCc3ccncc3)cc2n2c(-c3ccccc3)nnc12 [Compound B-83] | 9.77 | 102 |  | 2.5 | 29 | > 10 |  |  | 
Cc1ncccc1-c1nnc2c(C)nc3ccc(C(F)(F)F)cc3n12 [Compound B-167] | 95.5 | 263 |  |  |  |  | 10 | 19 | 10
CCOc1ccc(Cl)c(-c2nnc3c(C)nc4ccc(CN5CCC(F)CC5)cc4n23)c1 [Compound B-140] | 34.7 | 282 |  | 10 | 24 | > 10 |  |  | 
Cc1nc2ccc(C(=O)NCc3cccnc3)cc2n2c(-c3ccccc3)nnc12 [Compound B-56] | 3.98 | 44.7 |  |  |  |  | 10 | 21 | > 10
COc1ccc(Cl)c(-c2nnc3c(C)nc4ccc(C(=O)NCc5ccccn5)cc4n23)c1 [Compound B-43] | 1.62 | 43.7 |  |  |  |  | 10 | 19 | 10
Cc1nc2ccc(CN3CCOC(F)(C(F)(F)F)C3)cc2n2c(-c3ccccc3Cl)nnc12 (centres unmarked) [Compound B-114] | 24.5 | 105 |  |  |  |  | 10 | 24 | > 10

Continued, in another order:

IC50 [1] [nM] | IC50 [2] [nM] | IC50 [2, 4] [nM] | SMILES | SC Dose at max effect [3] [mg/kg] | SC Max effect (cumulative agitation score over 60 min) [3] | SC LAD (lowest active dose) [3] [mg/kg] | PO Dose at Max Effect [3] [mg/kg] | PO Max effect (cumulative agitation score over 60 min) [3] | PO LAD (lowest active dose) [3] [mg/kg]
6.31 | 19.1 |  | Cc1nc2ccc(NCCN3CCOCC3)cc2n2c(-c3ccccc3Cl)nnc12 [Compound B-71] | 10 | 15 | 10 |  |  | 
2.04 | 145 |  | Cc1nc2ccc(C(=O)NC3CCN(C)CC3)cc2n2c(-c3ccccc3Cl)nnc12 [Compound B-47] | 10 | 22 | > 10 |  |  | 
60.3 | 191 |  | Cc1nc2cc(Br)ccc2n2c(-c3ccccc3Cl)nnc12 [Compound B-3b, 7-Bromo-1-(2-chlorophenyl)-4-methyl[1,2,4]triazolo[4,3-a]quinoxaline] |  |  |  | 10 | 22 | > 10
10.7 | 123 |  | CCOc1ccc(Cl)c(-c2nnc3c(C)nc4ccc(Br)cc4n23)c1 [Compound B-85] |  |  |  | 10 | 21 | > 10
5.89 | 37.2 |  | COc1cc(CNC(=O)c2ccc3nc(C)c4nnc(-c5ccccc5Cl)n4c3c2)cc(OC)c1OC [Compound B-66] |  |  |  | 10 | 21 | > 10
40.7 | 240 |  | CCOc1ccc(Cl)c(-c2nnc3c(C)nc4ccc(CN5CCN(C)CC5)cc4n23)c1 [Compound B-145] | 10 | 22 | > 10 |  |  | 
29.5 | 132 |  | Cc1ncccc1-c1nnc2c(C)nc3ccc(Br)cc3n12 [Compound B-131] |  |  |  | 10 | 17 | 10
28.8 | 229 |  | CCOc1ccc(Cl)c(-c2nnc3c(C)nc4ccc(CN5CCC(O)CC5)cc4n23)c1 [Compound B-128] | 10 | 21 | > 10 |  |  | 
6.76 |  | 67.6 | Cc1nc2ccc(CN3CCN(C)CC3)cc2n2c(-c3ccccc3Cl)nnc12 [Compound B-73] | 10 | 19 | 10 |  |  | 
12 | 50.1 |  | Cc1nc2ccc(CN[C@H]3CC[C@H](O)CC3)cc2n2c(-c3ccccc3Cl)nnc12 [Compound B-90] | 10 | 25 | > 10 |  |  | 
19.1 | 204 |  | Cc1nc2ccc(C(=O)N(C)Cc3ccccc3)cc2n2c(-c3ccccc3)nnc12 [Compound B-104] | 2.5 | 21 | > 2.5 |  |  | 
4.9 | 23.4 |  | Cc1nc2ccc(CN3CCOC(CF)C3)cc2n2c(-c3ccccc3Cl)nnc12 (centres unmarked) [Compound B-59] | 10 | 15 | 10 |  |  | 
6.92 | 63.1 |  | COCC1CN(Cc2ccc3nc(C)c4nnc(-c5ccccc5Cl)n4c3c2)CCO1 (centres unmarked) [Compound B-75] | 10 | 15 | 2.5 |  |  | 
0.372 | 12 |  | Cc1nc2ccc(C(=O)NCc3ccccc3)cc2n2c(-c3ccccc3Cl)nnc12 [Compound B-34] |  |  |  | 2.5 | 22 | > 2.5
33.9 | 145 |  | CCOc1ccc(Cl)c(-c2nnc3c(C)nc4ccc(OCCc5cccnc5)cc4n23)c1 [Compound B-121] | 10 | 21 | > 10 |  |  | 

Reference: US10604523B2, “1-aryl-4-methyl-[1,2,4]triazolo[4,3-a]quinoxaline derivatives” (Janssen Pharmaceutica NV, priority 2011, dated 2020)
